{"source": "patent US9328326B2", "about": "“Method for isolating cells” (MERCK PATENT GMBH, priority 2006, dated 2016)", "key": {"[1]": {"system": "L. monocytogenes", "assay": "growth of L. monocytogenes after treatment with compounds of the matrix lysis protocol (Example 1)", "type": "cell-based", "settings": "incubated 2 h at 45 °C in the compound, then plated", "procedure": "L. monocytogenes EGDe was used as a DNA quantification standard for real-time PCR and for artificial contamination of food samples. The bacteria were maintained at -80° C. using the MicroBank technology (Pro-Lab Diagnostics, Canada). Listeria were grown in tryptone soy broth with 0.6% ([…]; Oxoid, UK) at 37° C. over night. For artificial contamination of food and viability staining, one milliliter of the over night culture was transferred to one milliliter of fresh medium and incubated at 37° C. for three hours. Plate count method and tryptone soy agar plates supplemented with 0.6% (w/v) yeast extract (TSA-Y; Oxoid, UK) were used for quantification of the pure cultures of L. monocytogenes. The agar plates were incubated at 37° C. for 24 hours. For determination of the survival rate of L. monocytogenes treated with different chemical compounds of the matrix lysis buffer system, 100 μl of an overnight culture of L. monocytogenes was pelleted at 8,000×g for 5 min, resuspended in the chemical compound of choice, and incubated for 2 h at 45° C. and 300 rpm on an Eppendorf shaker (Eppendorf, Germany). Afterwards the bacterial cells were washed twice in 1×PBS at 5,000×g and resuspended in 120 μl 1×PBS. One-hundred μl of the suspension was plated on […] agar plates (Biokar, Beauvais, France). Incubation was performed 48 h at 37° C."}, "[2]": {"system": "prfA gene of L. monocytogenes (real-time PCR)", "assay": "inhibitory effects of detergents on real-time PCR", "type": "biochemical", "procedure": "For experiments analysing the effects of food matrices and detergents contained in the matrix lysis buffer on real-time PCR, food matrices were mixed with equal amounts of ddH2O, stomachered for 3 minutes, diluted in a 10-fold dilution series (10^−1, 10^−2 and 10^−3) and 5 μl directly subjected to the real time PCR samples. An aliquot was cooked 15 min at 100° C. for comparison prior to subjection of 5 μl to real-time PCR. Detergents were diluted in 2-fold dilution series (0.4 M-0.05 M Urea and 0.8%-0.005% SDS) and 5 μl were subjected to the real-time PCR samples.\nReal-time PCR was performed in an Mx3000p real-time PCR thermocycler (Stratagene, USA). The 25 μl volume contained 20 mM Tris-HCl, 50 mM KCl, 3.5 mM MgCl2. 500 nM of each primer, 250 nM of each probe, 200 μM (each) of dATP, dTTP, dGTP and dCTP, 1.5 U of Platinum Taq DNA polymerase (Invitrogen, Austria), 25 copies of the IAC and […]. Amplification following initial denaturation at 94° C. for 2 min was performed in 45 cycles, at each 94° C. for 15 s and 64° C. for 1 minute."}, "[3]": {"system": "Gram negative bacteria", "assay": "recovery of Gram negative bacteria in matrix lysis", "type": "cell-based", "settings": "as detergent of the lysis buffer", "procedure": "Combinations of five different detergents (Tween 20®, Tween 80®, Triton X-100®; SDS, and Lutensol AO-7), three enzymes (Protease, alpha-amylase and cellulase) and a sucrose buffer (0.25 M sucrose, 1 mM EDTA and 0.05 M Tris, pH 7.6) were compared with respect of their ability to dissolve food matrices (salmon, chicken meat, diary products, ice cream, blood, starch rich foodstuffs, egg and milk) and their effect on the cellular appearance of the bacterial cells. All chemicals used (with the exception of SDS, Sigma-Aldrich, Germany; Lutensol AO-7, BASF, Netherland and Savinase, Novozymes, Denmark) were purchased at Merck (Germany). The matrix lysis protocol is described below.\nMatrix lysis was generally performed as described in example 1. Processing meat, fish, chicken and blood or when Gram positive bacteria were targeted, buffer system I (8 M urea, 1% SDS, and 1×PBS) was used. Buffer system II (8 M urea, 1% Lutensol AO-7 and 1×PBS) was used if Gram negative bacteria were targeted and for all other foodstuffs used (Milk, diary products, ice cream, and egg)."}, "[4]": {"system": "B. cereus", "assay": "BacLight viability staining after exposure to chemical compounds", "type": "cell-based", "parameters": "key: red: Red colour indicates dead cells; c.r.: Reduced cell count; green: Green colour indicates living cells", "procedure": "(§1) For assessment of the survival rate of the bacteria treated with different chemical compounds of the matrix lysis buffer system, 100 μl of an overnight culture was pelleted at 8,000×g for 5 min, re-suspended in 1 ml of the chemical compound of choice, […] shaker (Eppendorf, Germany). The bacterial cells were then washed twice in 1×PBS at 5,000×g and re-suspended in 120 μl 1×PBS. One-hundred it of the suspension was plated onto TSB-Y agar plates (Oxoid). Incubation was performed for 48 h at 37° C. Additionally the Live/Dead® BacLight™ Bacterial Viability Kit (Molecular Probes, USA) was used to examine the condition of the bacteria after the chemical treatments.\n(§2) Viability staining was performed using the Live/Dead® BacLight™ Bacterial Viability Kit (Molecular Probes) as prescribed by the manufacturer. Ten fields per filter were analysed, and two filters were prepared for each sample."}, "[5]": {"system": "S. aureus", "assay": "BacLight viability staining after exposure to chemical compounds", "type": "cell-based", "parameters": "key: red: Red colour indicates dead cells; c.r.: Reduced cell count; green: Green colour indicates living cells", "procedure": "as §1, §2"}, "[6]": {"system": "L. monocytogenes", "assay": "BacLight viability staining after exposure to chemical compounds", "type": "cell-based", "parameters": "key: red: Red colour indicates dead cells; c.r.: Reduced cell count; green: Green colour indicates living cells", "procedure": "as §1, §2"}, "[7]": {"system": "E. coli", "assay": "BacLight viability staining after exposure to chemical compounds", "type": "cell-based", "parameters": "key: red: Red colour indicates dead cells; c.r.: Reduced cell count; green: Green colour indicates living cells", "procedure": "as §1, §2"}, "[8]": {"system": "B. cereus", "assay": "plate growth after exposure to chemical compounds", "type": "cell-based", "procedure": "as §1"}, "[9]": {"system": "S. aureus", "assay": "plate growth after exposure to chemical compounds", "type": "cell-based", "procedure": "as §1"}, "[10]": {"system": "S. thyphimurium", "assay": "plate growth after exposure to chemical compounds", "type": "cell-based", "procedure": "as §1"}, "[11]": {"system": "L. monocytogenes", "assay": "plate growth after exposure to chemical compounds", "type": "cell-based", "procedure": "as §1"}, "[12]": {"system": "E. coli", "assay": "plate growth after exposure to chemical compounds", "type": "cell-based", "procedure": "as §1"}, "[13]": {"system": "S. thyphimurium", "assay": "BacLight viability staining after exposure to chemical compounds", "type": "cell-based", "procedure": "as §1, §2"}}}
{"smiles": "CCCCCCCCCCCCOS(=O)(=O)[O-].[Na+]", "note": "[1% SDS, sodium dodecyl sulfate]", "values": [{"measurement": "growth of L. monocytogenes on TSY agar after treatment", "setting": "[1]", "value": "Complete inhibition of growth"}, {"measurement": "inhibitory effect on real-time PCR", "setting": "[2]; SDS 0.8% to 0.005%, 15.5 and 1,550 copies/PCR", "value": "no amplification"}, {"measurement": "recovery of Gram negative bacteria", "setting": "[3]", "value": "decreasing the recovery"}]}
{"smiles": "NC(N)=O", "note": "[8 M Urea, urea]", "values": [{"measurement": "growth of L. monocytogenes on TSY agar after treatment", "setting": "[1]", "value": "able to grow"}, {"measurement": "inhibitory effect on real-time PCR", "setting": "[2]; urea 0.4 M and 0.2 M, 15.5 copies of the target", "value": "total inhibition"}, {"measurement": "inhibitory effect on real-time PCR", "setting": "[2]; urea 0.4 M, 1,550 copies of the target", "value": "total inhibition"}, {"measurement": "B. cereus BacLight", "setting": "[4]; 37 °C", "value": "green"}, {"measurement": "B. cereus BacLight", "setting": "[4]; 42 °C", "value": "green"}, {"measurement": "B. cereus BacLight", "setting": "[4]; 45 °C", "value": "green"}, {"measurement": "S. aureus BacLight", "setting": "[5]; 37 °C", "value": "green"}, {"measurement": "S. aureus BacLight", "setting": "[5]; 42 °C", "value": "green"}, {"measurement": "S. aureus BacLight", "setting": "[5]; 45 °C", "value": "green"}, {"measurement": "L. monocytogenes BacLight", "setting": "[6]; 37 °C", "value": "green^c"}, {"measurement": "L. monocytogenes BacLight", "setting": "[6]; 42 °C", "value": "green"}, {"measurement": "L. monocytogenes BacLight", "setting": "[6]; 45 °C", "value": "green"}, {"measurement": "E. coli BacLight", "setting": "[7]; 37 °C", "value": "red^a"}, {"measurement": "E. coli BacLight", "setting": "[7]; 42 °C", "value": "c.r./red"}, {"measurement": "E. coli BacLight", "setting": "[7]; 45 °C", "value": "c.r./red"}, {"measurement": "B. cereus Plate growth", "setting": "[8]; 37 °C", "value": "pos.."}, {"measurement": "B. cereus Plate growth", "setting": "[8]; 42 °C", "value": "pos.."}, {"measurement": "B. cereus Plate growth", "setting": "[8]; 45 °C", "value": "pos.."}, {"measurement": "S. aureus Plate growth", "setting": "[9]; 37 °C", "value": "pos.."}, {"measurement": "S. aureus Plate growth", "setting": "[9]; 42 °C", "value": "pos.."}, {"measurement": "S. aureus Plate growth", "setting": "[9]; 45 °C", "value": "pos.."}, {"measurement": "S. thyphimurium Plate growth", "setting": "[10]; 37 °C", "value": "neg."}, {"measurement": "S. thyphimurium Plate growth", "setting": "[10]; 42 °C", "value": "neg."}, {"measurement": "S. thyphimurium Plate growth", "setting": "[10]; 45 °C", "value": "neg."}, {"measurement": "L. monocytogenes Plate growth", "setting": "[11]; 37 °C", "value": "pos.."}, {"measurement": "L. monocytogenes Plate growth", "setting": "[11]; 42 °C", "value": "pos.."}, {"measurement": "L. monocytogenes Plate growth", "setting": "[11]; 45 °C", "value": "pos.."}, {"measurement": "E. coli Plate growth", "setting": "[12]; 37 °C", "value": "neg."}, {"measurement": "E. coli Plate growth", "setting": "[12]; 42 °C", "value": "neg."}, {"measurement": "S. thyphimurium BacLight", "setting": "[13]; 37 °C", "value": "c.r.^b/red"}, {"measurement": "S. thyphimurium BacLight", "setting": "[13]; 42 °C", "value": "c.r./red"}, {"measurement": "S. thyphimurium BacLight", "setting": "[13]; 45 °C", "value": "c.r./red"}]}
